# “Also recorded” adds a separate entry of the source. Like-named read-outs stand apart in the source and are kept apart here.
# Experiments:
# [1] = target: T1, CDK1-NanoLuc fusion with CCNB1 in 293T or 293 cells (Homo sapiens, UniProt P06493); assay: NanoBRET Target Engagement (TE) Intracellular Kinase Assay, CDK1/CCNB1; assay type: cell-based; conditions: NanoBRET TE intracellular kinase assay, 2-hour incubation, read-out: NanoBRET-CDK1/B1 IC50
# T1 construct: host or cells: 293T (ATCC CRL-3216) or 293 (ATCC CRL-1573)
# T1 sequence (P06493 whole entry, the tested form may be a part): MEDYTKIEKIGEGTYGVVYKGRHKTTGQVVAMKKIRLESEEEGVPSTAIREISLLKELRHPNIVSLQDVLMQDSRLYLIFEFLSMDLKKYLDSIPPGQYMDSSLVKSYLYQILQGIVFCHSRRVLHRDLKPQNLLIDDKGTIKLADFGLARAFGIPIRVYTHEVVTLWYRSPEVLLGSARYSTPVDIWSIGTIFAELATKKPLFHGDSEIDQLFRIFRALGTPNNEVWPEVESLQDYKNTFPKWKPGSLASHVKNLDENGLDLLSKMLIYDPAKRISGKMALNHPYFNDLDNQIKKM
# T1 sequence (P14635 whole entry partner, the tested form may be a part): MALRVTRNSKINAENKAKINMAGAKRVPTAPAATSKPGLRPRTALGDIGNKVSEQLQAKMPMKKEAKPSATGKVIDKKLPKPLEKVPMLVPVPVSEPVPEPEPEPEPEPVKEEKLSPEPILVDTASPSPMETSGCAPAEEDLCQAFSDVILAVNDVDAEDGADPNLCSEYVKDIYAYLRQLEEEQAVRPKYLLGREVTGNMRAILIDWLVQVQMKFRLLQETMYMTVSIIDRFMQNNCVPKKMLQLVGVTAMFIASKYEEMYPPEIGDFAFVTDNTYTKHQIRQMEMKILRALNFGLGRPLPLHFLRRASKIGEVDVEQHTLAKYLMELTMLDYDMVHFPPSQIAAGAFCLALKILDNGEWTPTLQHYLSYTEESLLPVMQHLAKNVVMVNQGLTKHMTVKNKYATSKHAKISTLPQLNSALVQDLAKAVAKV
# Summary of the method: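 293T or 293 cells co-transfected with CDK1-NanoLuc and CCNB1 vectors, incubated 24 h, then exposed to NanoBRET Tracer K-10 plus compound for 2 h at 37° C. BRET ratio (610/450 nm) normalized to DMSO; IC50 from four-parameter logistic fit.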
# [2] = tested on: Phospho-Rb Ser807/811 in OVCAR3 cells; assay: OVCAR3 Phospho-Rb Ser807/811 HTRF assay; assay type: cell-based; conditions: Homo sapiens, OVCAR-3, 1 h, read-out: pRb-OVCAR3 IC50
# Description: Cells were trypsinized and resuspended in 1 mM hydroxyurea (Sigma; H8627), 90% RPMI and 10% fetal bovine serum. […] Dose response curve normalized to DMSO control was plotted using four-parameter logistic model for IC50 calculation.
# [3] = target: T2, CDK2-NanoLuc fusion with CCNE1 in 293T or 293 cells (Homo sapiens, UniProt P24941); assay: NanoBRET Target Engagement (TE) Intracellular Kinase Assay, CDK2/CCNE1; assay type: cell-based; conditions: 2-hour incubation
# T2 construct: host or cells: 293T (ATCC CRL-3216) or 293 (ATCC CRL-1573)
# pCDK2-CCNE1 proteins = pCDK2-CCNE1 proteins (Homo sapiens, UniProt P24941); assay: Identification of covalent binding by intact mass spectrometry, with and without competitor PF-06873600; conditions: for Observed mass value of the covalent complex between compound and CDK2 protein: intact mass spectrometry after borohydride reduction, unmodified CDK2 34096-34097 Da; for Covalent complex formation with CDK2 protein (intact mass spectra after sodium borohydride reduction) / Binding pocket by competition: complex formation in presence of molar excess PF-06873600: pCDK2-CCNE1 1 μM, compound 1.5 μM; for Covalent complex formation with CDK2 protein (intact mass spectra after sodium borohydride reduction): 1 hour at room temperature or 37° C., no competitor; for Binding pocket by competition: complex formation in presence of molar excess PF-06873600: competitor PF-06873600 20 μM
# Description: pCDK2-CCNE1 proteins (1 μM) were treated with a compound (1.5 μM) from Table 4 for 1 hour at room temperature or 37° C., with and without competitor molecule PF-06873600 (20 μM final concentration) as a specificity control. As used herein, the competitor molecule is
# As used herein, the competitor molecule is 6-(difluoromethyl)-8-((1R,2R)-2-hydroxy-2-methylcyclopentyl)-2-((1-(methylsulfonyl)piperidin-4-yl)amino)pyrido[2,3-d]pyrimidin-7(8H)-one (PF-06873600). Reversible imines were captured by reductive amination with the addition of 5 mM sodium borohydride at room temperature for 5 min. Reduction reactions were quenched by diluting the sample in equal volume of 1% trifluoroacetic acid (v/v) in acetonitrile, then analyzed by LC-MS. Deconvoluted monoisotopic intensities of unmodified and compound-modified mass peaks were compared.
# FIGS. 1A to 1P provide intact mass spectra for pCDK2-CCNE1 proteins after incubation with compounds of the present disclosure and subsequent sodium borohydride reduction. […] Further, FIGS. 1A to 1P each provide intact mass spectra following the incubation of pCDK2-CCNE1 proteins with a compound of the present disclosure both in the absence of a competitor molecule (i.e., PF-06873600, a molecule known to bind to and inhibit the function of CDK2); and in the presence of a significant stoichiometric excess of a competitor molecule PF-06873600.
# FIGS. 2A to 2N provide intact mass spectra for pCDK2-CCNE1 proteins after incubation with compounds of the present disclosure and subsequent sodium borohydride reduction.
# [4] = target: T3, CDK4-NanoLuc fusion with CCND1 in 293T or 293 cells (Homo sapiens, UniProt P11802); assay: NanoBRET Target Engagement (TE) Intracellular Kinase Assay, CDK4/CCND1; assay type: cell-based; conditions: NanoBRET TE intracellular kinase assay, 2-hour incubation, read-out: NanoBRET-CDK4/D1 IC50
# T3 construct: host or cells: 293T (ATCC CRL-3216) or 293 (ATCC CRL-1573)
# T3 sequence (P11802 whole entry, the tested form may be a part): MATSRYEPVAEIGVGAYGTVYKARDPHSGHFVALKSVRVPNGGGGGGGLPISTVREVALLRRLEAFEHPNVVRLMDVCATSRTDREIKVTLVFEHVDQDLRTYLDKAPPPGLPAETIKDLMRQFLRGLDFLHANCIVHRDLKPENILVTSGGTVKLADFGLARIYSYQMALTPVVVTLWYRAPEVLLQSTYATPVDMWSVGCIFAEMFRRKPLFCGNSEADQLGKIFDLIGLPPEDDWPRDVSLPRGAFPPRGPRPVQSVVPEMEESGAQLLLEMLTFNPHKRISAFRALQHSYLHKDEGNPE
# T3 sequence (P24385 whole entry partner, the tested form may be a part): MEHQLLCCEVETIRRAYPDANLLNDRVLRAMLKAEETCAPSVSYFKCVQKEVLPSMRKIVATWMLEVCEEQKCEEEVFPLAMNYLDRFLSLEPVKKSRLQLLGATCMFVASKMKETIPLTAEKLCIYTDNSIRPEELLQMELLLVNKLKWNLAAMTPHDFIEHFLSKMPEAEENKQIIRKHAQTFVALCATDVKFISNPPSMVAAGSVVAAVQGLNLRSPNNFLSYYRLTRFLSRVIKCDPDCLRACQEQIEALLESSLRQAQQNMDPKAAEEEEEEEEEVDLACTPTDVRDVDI
# [5] = OVCAR3 cells, Phospho-Rb Ser807/811 HTRF, 1 hour incubation
# [6] = NanoBRET TE intracellular kinase assay, read-out: NanoBRET-CDK2/E1 IC50
smiles,measurement,setting,value
"COc1cc(O)c(C=O)c([C@@H]2C[C@H]2C(=O)Nc2cc([C@H]3CC[C@@H](OC(=O)NC(C)C)C3)[nH]n2)c1 (mixture of isomers) [Compound 89, (1R,3S)-3-{5-[trans-2-(2-formyl-3-hydroxy-5-methoxyphenyl)cyclopropaneamido]-2H-pyrazol-3-yl}cyclopentyl N-isopropylcarbamate]",IC50,[1],11.3 nM
same,IC50,[2]; [5],44.7 nM
same,IC50,[3]; [6],2.27 nM
same,Observed mass value of the covalent complex between compound and CDK2 protein,pCDK2-CCNE1 proteins,34550 Da
same,Covalent complex formation with CDK2 protein (intact mass spectra after sodium borohydride reduction),pCDK2-CCNE1 proteins,resulted in covalent complex formation
same,IC50,[4],1280 nM
"CC(C)NC(=O)O[C@@H]1CC[C@H](c2cc(NC(=O)COc3cccc(O)c3C=O)n[nH]2)C1 [Compound 11, (1R,3S)-3-{5-[2-(2-formyl-3-hydroxyphenoxy)acetamido]-2H-pyrazol-3-yl}cyclopentyl N-isopropylcarbamate]",IC50,[1],17.3 nM
same,IC50,[2]; [5],102 nM
same,IC50,[3]; [6],3.72 nM
same,Observed mass value of the covalent complex between compound and CDK2 protein,pCDK2-CCNE1 proteins,34511 Da
same,Covalent complex formation with CDK2 protein (intact mass spectra after sodium borohydride reduction),pCDK2-CCNE1 proteins,formed a covalent complex with CDK2 protein; also recorded: resulted in covalent complex formation
same,Binding pocket by competition: complex formation in presence of molar excess PF-06873600,pCDK2-CCNE1 proteins,bound to the same binding pocket of CDK2 as the competitor molecule PF-06873600
same,IC50,[4],> 9900 nM
"CC(C)NC(=O)O[C@@H]1CC[C@H](c2cc(Nc3cc(Oc4cccc(O)c4C=O)ccn3)n[nH]2)C1 [Compound 13, (1R,3S)-3-(5-{[4-(2-formyl-3-hydroxyphenoxy)pyridin-2-yl]amino}-2H-pyrazol-3-yl)cyclopentyl N-isopropylcarbamate; trifluoroacetic acid]",IC50,[1],92.9 nM
same,IC50,[2]; [5],701 nM
same,IC50,[3]; [6],12.4 nM
same,Observed mass value of the covalent complex between compound and CDK2 protein,pCDK2-CCNE1 proteins,34546 Da
same,Covalent complex formation with CDK2 protein (intact mass spectra after sodium borohydride reduction),pCDK2-CCNE1 proteins,formed a covalent complex with CDK2 protein
same,Binding pocket by competition: complex formation in presence of molar excess PF-06873600,pCDK2-CCNE1 proteins,bound to the same binding pocket of CDK2 as the competitor molecule PF-06873600
same,IC50,[4],4700 nM
"CC(C)c1ccc(O[C@@H]2CC[C@H](c3cc(NC(=O)CCc4cccc(O)c4C=O)n[nH]3)C2)nn1 [Compound 14, 3-(2-formyl-3-hydroxyphenyl)-N-{5-[(1S,3R)-3-[(6-isopropylpyridazin-3-yl)oxy]cyclopentyl]-1H-pyrazol-3-yl}propanamide]",IC50,[1],1690 nM
same,IC50,[3]; [6],138 nM
same,Covalent complex formation with CDK2 protein (intact mass spectra after sodium borohydride reduction),pCDK2-CCNE1 proteins,resulted in covalent complex formation
same,IC50,[4],779 nM
"CC(C)NC(=O)O[C@@H]1CC[C@H](c2cc(NC(=O)Cc3cnn(-c4cccc(O)c4C=O)c3)n[nH]2)C1 [Compound 16, (1R,3S)-3-(5-{2-[1-(2-formyl-3-hydroxyphenyl)pyrazol-4-yl]acetamido}-2H-pyrazol-3-yl)cyclopentyl N-isopropylcarbamate; trifluoroacetic acid]",IC50,[1],75.9 nM
same,IC50,[2],585 nM
same,IC50,"[3]; NanoBRET-CDK2/E1 IC50, NanoBRET TE intracellular kinase assay",34.3 nM
same,Observed mass value of the covalent complex between compound and CDK2 protein,pCDK2-CCNE1 proteins,34561 Da
same,Covalent complex formation with CDK2 protein (intact mass spectra after sodium borohydride reduction),pCDK2-CCNE1 proteins,formed a covalent complex with CDK2 protein
same,Binding pocket by competition: complex formation in presence of molar excess PF-06873600,pCDK2-CCNE1 proteins,bound to the same binding pocket of CDK2 as the competitor molecule PF-06873600
same,IC50,[4],626 nM
"CC(C)NC(=O)O[C@@H]1CC[C@H](c2cc(NC(=O)c3cc(-c4cccc(O)c4C=O)nn3C)n[nH]2)C1 [Compound 17, (1R,3S)-3-{5-[5-(2-formyl-3-hydroxyphenyl)-2-methylpyrazole-3-amido]-2H-pyrazol-3-yl}cyclopentyl N-isopropylcarbamate 2,2,2-trifluoroacetate]",IC50,[1],16.7 nM
same,IC50,[2]; [5],226 nM
same,IC50,[3]; [6],4.87 nM
same,Observed mass value of the covalent complex between compound and CDK2 protein,pCDK2-CCNE1 proteins,34561 Da
same,Covalent complex formation with CDK2 protein (intact mass spectra after sodium borohydride reduction),"pCDK2-CCNE1 proteins; 2,2,2-trifluoroacetate",formed a covalent complex with CDK2 protein; also recorded: resulted in covalent complex formation
same,Binding pocket by competition: complex formation in presence of molar excess PF-06873600,pCDK2-CCNE1 proteins,bound to the same binding pocket of CDK2 as the competitor molecule PF-06873600
same,IC50,[4],4580 nM
"CC(C)NC(=O)O[C@@H]1CC[C@H](c2cc(NC(=O)c3cc(-c4cccc(C=O)c4O)nn3C)n[nH]2)C1 [Compound 18, (1R,3S)-3-{5-[5-(3-formyl-2-hydroxyphenyl)-2-methylpyrazole-3-amido]-2H-pyrazol-3-yl}cyclopentyl N-isopropylcarbamate trifluoroacetic acid]",IC50,[1],703 nM
same,IC50,[2]; [5],4640 nM
same,IC50,[3]; [6],11.4 nM
same,Covalent complex formation with CDK2 protein (intact mass spectra after sodium borohydride reduction),pCDK2-CCNE1 proteins,resulted in covalent complex formation
same,IC50,[4],1610 nM
"CC1(NC(=O)O[C@@H]2CC[C@H](c3cc(NC(=O)CCc4cccc(O)c4C=O)n[nH]3)C2)CC1 [Compound 23, (1R,3S)-3-(3-(3-(2-formyl-3-hydroxyphenyl)propanamido)-1H-pyrazol-5-yl)cyclopentyl (1-methylcyclopropyl)carbamate trifluoroacetic acid]",IC50,[1],125 nM
same,IC50,[3]; [6],10.9 nM
same,Covalent complex formation with CDK2 protein (intact mass spectra after sodium borohydride reduction),pCDK2-CCNE1 proteins,resulted in covalent complex formation
same,IC50,[4],969 nM
"COc1cc(O)c(C=O)c(OCC(=O)Nc2cc([C@H]3CC[C@@H](OC(=O)NC4(C)CC4)C3)[nH]n2)c1 [Compound 251, (1R,3S)-3-(3-(2-(2-formyl-3-hydroxy-5-methoxyphenoxy)acetamido)-1H-pyrazol-5-yl)cyclopentyl (1-methylcyclopropyl)carbamate]",IC50,[1],4.13 nM
same,IC50,[2]; [5],15.1 nM
same,IC50,[3]; [6],1.22 nM
same,IC50,[4],966 nM
Cc1cc(O)c(C=O)c(O[C@@H](C)C(=O)Nc2cc([C@H]3CC[C@@H](OC(=O)NC(C)C)C3)[nH]n2)c1 [Compound 252],IC50,[1],30.6 nM
same,IC50,[2]; [5],326 nM
same,IC50,[3]; [6],6.48 nM
same,IC50,[4],4090 nM
C#CCNC(=O)O[C@@H]1CC[C@H](c2cc(NC(=O)COc3cc(OC)cc(O)c3C=O)n[nH]2)C1 [Compound 253],IC50,[1],18.4 nM
same,IC50,[2]; [5],28.7 nM
same,IC50,[3]; [6],2.65 nM
same,IC50,[4],5100 nM
COc1cc(O)c(C=O)c(OCC(=O)Nc2cc([C@H]3CC[C@@H](OC(=O)NC4(C)CCC4)C3)[nH]n2)c1 [Compound 254],IC50,[1],2.8 nM
same,IC50,[2]; [5],21.4 nM
same,IC50,[3]; [6],2.28 nM
same,IC50,[4],778 nM
"COc1cc(O)c(C=O)c(OCC(=O)Nc2cc([C@H]3CC[C@@H](OC(=O)N4CCCC4)C3)[nH]n2)c1 [Compound 255, (1R,3S)-3-(3-(2-(2-formyl-3-hydroxy-5-methoxyphenoxy)acetamido)-1H-pyrazol-5-yl)cyclopentyl pyrrolidine-1-carboxylate]",IC50,[1],10.9 nM
same,IC50,[2]; [5],32.8 nM
same,IC50,[3]; [6],2.24 nM
same,IC50,[4],4270 nM
CC(C)NC(=O)O[C@@H]1CC[C@H](c2cc(NC(=O)COc3cc(-n4cccn4)cc(O)c3C=O)n[nH]2)C1 [Compound 257],IC50,[1],703 nM
same,IC50,[2]; [5],2490 nM
same,IC50,[3]; [6],10.5 nM
same,IC50,[4],> 10000 nM

# Source: patent publication US20250289789A1, “REVERSIBLE LYSINE COVALENT MODIFIERS OF CDK2 AND USES THEREOF” (Terremoto Biosciences, Inc., priority 2023, published 2025)
